The values below come from patent publication US20110313021A1, “Method to rapidly identify critical p53 target genes that can be utilized for therapeutic intervention” (priority 2010, published 2011).

The target in the test is T1, GST-tagged recombinant MCAK protein (amino acids 182 to 646 of the human MCAK protein) (Homo sapiens, UniProt Q99661).
T1 construct: corresponding to amino acids 182 to 646 of the human MCAK protein; GST; purchased Cytoskeleton, Denver Colo
In words: MCAK ATPase assay. It is filed as biochemical. The settings on record: dose-response, read-out: 50% inhibitory concentration (IC50) for MCAK activity. An excerpt: Based on the instant data supporting a role for MCAK in p53 mediated cell death, it can be reasoned that MCAK will also fill a therapeutic niche for rational drug design targeting the mitotic checkpoint. Importantly, cancer cells with abrogated p53 contain high levels of MCAK, thereby providing a genetic determinant for therapeutic use of MCAK inhibitors. Accordingly, the inventor sought to identify and characterize inhibitors of MCAK function. MCAK utilizes the energy of Adenosine triphosphate (ATP) hydrolysis to carry out its MT depolymerization function. The inventor exploited this characteristic to utilize and optimize a commercially available in vitro assay that measures MCAK ATPase activity (Cytoskeleton, Denver Colo.). The components of the assay are: recombinant MCAK protein, ATP, pre-formed MTs, detection reagent for inorganic phosphate (Pi), and the appropriate buffers for the reaction. We utilized a glutathione S-transferase (GST)-tagged recombinant MCAK protein corresponding to amino acids 182 to 646 of the human MCAK protein, a region of the protein that contains the kinesin motor domain of MCAK. The ATPase activity of MCAK directly correlates to the presence of Pi in the reaction mixture.
The inventor used the MCAK ATPase to carry out a high-throughput screen (HTS) of a library of synthetic small molecules and various natural products. […]

T1 sequence (Q99661 182-646): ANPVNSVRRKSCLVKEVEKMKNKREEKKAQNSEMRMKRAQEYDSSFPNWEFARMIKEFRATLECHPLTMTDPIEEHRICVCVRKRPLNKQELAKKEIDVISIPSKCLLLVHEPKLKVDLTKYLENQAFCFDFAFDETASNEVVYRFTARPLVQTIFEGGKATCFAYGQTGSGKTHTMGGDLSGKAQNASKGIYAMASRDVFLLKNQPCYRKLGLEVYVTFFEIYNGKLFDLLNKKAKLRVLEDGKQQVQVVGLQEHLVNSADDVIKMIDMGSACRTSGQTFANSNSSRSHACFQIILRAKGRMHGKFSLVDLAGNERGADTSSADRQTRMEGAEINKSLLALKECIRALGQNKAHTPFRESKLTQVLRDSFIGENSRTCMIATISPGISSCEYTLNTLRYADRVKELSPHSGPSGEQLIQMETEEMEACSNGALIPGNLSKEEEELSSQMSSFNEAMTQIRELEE

For `Cc1cc2c(C(C)C)c(O)c(O)c(C=O)c2c(O)c1-c1c(C)cc2c(C(C)C)c(O)c(O)c(C=O)c2c1O` [gossypol], the IC50 was ~11 µM.
